Experiments:
BG02 hESCs = assay: Proliferation of hESCs growing in conditioned medium with AG825; format: cell-based, human; conditions: 50 μM (FIG. 6A)
From the text: (§1) Colony and cell-counting assays confirmed that LongR3-IGF1 and HRG played the major roles in self-renewal and proliferation in the context of one of the embodiments of the present invention (FIGS. 6D, 6E). Phosphorylation of IGF1R, IR, FGF2a, ErbB2, and ErbB3 was also observed in both steady-state DC-HAIF cultures, and in starved cultures that were pulsed with DC-HAIF (FIG. 6F).

ErbB2 = biological target: T1, ErbB2 (Homo sapiens, UniProt P04626); assay: Western blotting of ErbB2 autophosphorylation in starved/heregulin pulsed hESCs; format: cell-based; conditions: starved/heregulin pulsed hESCs growing in DC-HAIF
T1 construct: endogenous in cells; host or cells: human embryonic stem cells (hESCs) grown in DC-HAIF
T1 sequence (P04626 23-1255): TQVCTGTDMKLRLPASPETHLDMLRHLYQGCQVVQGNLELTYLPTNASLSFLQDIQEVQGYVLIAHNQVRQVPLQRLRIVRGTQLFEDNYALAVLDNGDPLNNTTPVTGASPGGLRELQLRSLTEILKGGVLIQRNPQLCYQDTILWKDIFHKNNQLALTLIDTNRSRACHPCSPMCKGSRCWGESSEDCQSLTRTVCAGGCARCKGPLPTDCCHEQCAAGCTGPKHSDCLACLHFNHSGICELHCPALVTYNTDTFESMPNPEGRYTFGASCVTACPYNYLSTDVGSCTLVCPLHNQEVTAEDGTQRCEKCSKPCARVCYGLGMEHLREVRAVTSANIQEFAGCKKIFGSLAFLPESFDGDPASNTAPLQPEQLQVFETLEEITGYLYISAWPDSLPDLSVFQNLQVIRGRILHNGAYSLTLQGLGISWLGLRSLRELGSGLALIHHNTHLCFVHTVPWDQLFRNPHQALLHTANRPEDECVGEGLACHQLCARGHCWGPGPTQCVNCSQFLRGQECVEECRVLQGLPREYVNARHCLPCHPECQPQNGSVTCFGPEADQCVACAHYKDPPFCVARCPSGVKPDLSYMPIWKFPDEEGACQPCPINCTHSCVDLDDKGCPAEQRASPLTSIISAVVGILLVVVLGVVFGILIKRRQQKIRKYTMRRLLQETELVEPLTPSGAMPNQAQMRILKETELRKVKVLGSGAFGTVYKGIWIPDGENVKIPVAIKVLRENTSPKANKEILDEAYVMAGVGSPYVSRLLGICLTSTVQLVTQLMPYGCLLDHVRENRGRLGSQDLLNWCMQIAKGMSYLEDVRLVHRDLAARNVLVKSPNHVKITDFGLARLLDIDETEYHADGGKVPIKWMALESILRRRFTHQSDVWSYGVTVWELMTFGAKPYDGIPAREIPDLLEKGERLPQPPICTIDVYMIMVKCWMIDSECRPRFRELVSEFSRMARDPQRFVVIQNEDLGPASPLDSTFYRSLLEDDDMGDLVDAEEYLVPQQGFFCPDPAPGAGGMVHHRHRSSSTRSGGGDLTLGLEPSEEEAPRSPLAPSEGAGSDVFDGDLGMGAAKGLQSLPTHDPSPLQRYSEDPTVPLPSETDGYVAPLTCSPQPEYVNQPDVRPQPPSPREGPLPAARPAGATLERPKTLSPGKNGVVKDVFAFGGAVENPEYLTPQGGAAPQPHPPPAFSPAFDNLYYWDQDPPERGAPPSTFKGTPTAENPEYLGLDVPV
From the text: as §1

BG01v cells = assay: Proliferation of BG01v cells with ErbB tyrosine kinase inhibitors, alkaline phosphatase staining; format: cell-based; conditions: 5 days
Method: To examine the effect of known inhibitors of ErbB tyrosine kinases in hESCs, BG01 v cells were plated in 6 well trays on […]™ diluted at 1:1000, in defined culture medium (DC) containing 100 ng/ml LongR3-IGF1, 8 ng/ml FGF2 and 1 ng/ml Activin A. On the next day, DMSO (carrier control), 50 nM-20 μM AG1478 (an ErbB1 inhibitor), or 100 nM-20 μM AG879 (an ErbB2 inhibitor) was added with fresh medium. The cells were cultured for an additional 5 days, with daily media changes. The cultures were then fixed and stained for alkaline phosphatase activity.

R1 mouse ES cells = assay: Proliferation of R1 mouse ES cells with ErbB tyrosine kinase inhibitors, alkaline phosphatase staining; format: cell-based
Method: AG1478 and AG879 were used to examine the role of HRG/ErbB signaling in mouse ES cells. R1 mouse ES cells were maintained in standard conditions in DMEM, 10% FBS, 10% KSR, 0.5 U/ml penicillin, 0.5 U/ml streptomycin, 1×NEAA, 1 mM sodium pyruvate, 1000 U/ml LIF (ESGRO), 0.1 mM 13-ME, and were passaged with 0.5% trypsin/EDTA. 2×10^5 cells/well were plated in 6 well trays on […]™ diluted at 1:1000. The day after plating, DMSO (carrier control), 1-50 μM AG1478, or 1-50 μM AG879 was added with fresh medium. The cells were cultured an additional 8 days, with daily media changes. The cultures were then fixed and stained for alkaline phosphatase activity.

ES cells = assay: Suspension cultures in various media, cell counting; format: cell-based; conditions: added to HAIF, HAI and HI conditions
Method: To determine if suspensions of ES cells could be cultured in the absence of FGF2 and/or Activin A, ES cells were cultured in a variety of media, with and without these factors. […] In addition, the cells in each media were successfully passaged with no morphological signs of differentiation.

BG02 cells = assay: Suspension culture of BG02 cells with and without apoptosis inhibitor, cell counting; format: cell-based, human
Method: Starting cultures of BG02 cells were maintained in DC-HAIF medium on dishes coated with 1:200 matrigel, as described herein and were split by passaging with ACCUTASE™. To initiate suspension culture, BG02 cells were disaggregated with ACCUTASE™ and placed in low attachment 6-well trays at a density of 1.6, 3, or 6×10^5 cells/ml (0.5, 1, or 2×10^6 cells in 3 ml volumes) in DC-HAIF medium. The trays were placed on a rotating platform at 80-100 rpm in a humidified incubator with 5% CO2. Under these conditions hESCs coalesced into small spheres of morphologically viable cells within 24 hours.
To attenuate the loss of cells after initial passaging in suspension, an inhibitor of apoptosis was added to the medium. Cells were passaged as in Example 12, except that Y-27632, an inhibitor of p160-Rho-associated coiled-coil kinase (ROCK), was added to the medium.
Suspension aggregates of BG02 cells were formed by seeding 2×10^6 single cells in 6-well dishes in 3 ml DC-HAIF medium, at 100 rpm on a rotating platform in an incubator (Table 2, Experiment A). 10 μM Y27632 ROCK inhibitor was added to test wells for the course of the experiment and the cultures observed daily and counted after 24 hours (day 1) and after 4 or 5 days. […] Cell counting confirmed that more viable cells were present in the presence of inhibitor (Table 2, Experiment A). This difference in cell number persisted throughout the course of the culture period, with more cells also observed on day 4, compared to cultures without inhibitor. As with previous suspension culture experiments, cells exposed to Y27632 could also be serially passaged, and maintained in an undifferentiated state (not shown).
As previous experiments had shown that growth rates of cells in suspension and adherent culture were similar after the initial 24 hours, an experiment was performed where Y27632 was removed after this initial period (Table 2, Experiment B). […] 1.4×10^7 (+Y27632) and 1.8×10^7 (+/−Y27632) viable cells were generated when inhibitor was present compared to 3.9×10^6 cells in untreated cultures. This analysis confirmed that Y27632 had the largest impact during the first 24 hours of suspension hESC culture.
Because of the enhanced survival and aggregation observed in the presence of Y27632, an experiment was performed to examine if it was possible to reduce the number of cells used to seed suspension cultures (Table 2, Experiment C). […] To determine if addition of a ROCK inhibitor would allow cell seeding at lower densities, a range of cell concentrations (from about 2×10^6 total cells down to about 1×10^5 total cells was used to seed suspension cultures in 6-well trays cells in 3 ml DC-HAIF. 10 μM Y27632 was added to all conditions, and the cell number and viability assessed on day 5. Successful aggregation and expansion was observed even at low seeding densities. An approxiate 13 fold expansion of viable cells was observed even cultures that were only seeded with 1×10^5 cells. Inhibition of ROCK with Y27632 therefore facilitated initial survival of hESCs at much lower densities in this suspension system.

hESCs = assay: Titration of insulin and IGF1 at physiological levels, hESC proliferation; format: cell-based, human; conditions: titrated from about 0.2 to about 200 ng/ml, cells counted after 5 days
Method: Essentially all of the reported culture conditions for hESCs to date include supraphysiological levels of insulin, which can stimulate both IR and IGF1R. To distinguish the activities that insulin and insulin-substitutes exert, compared to IGF1, hESCs are cultured in defined media conditions in physiological levels of these growth factors. The concentrations of insulin and IGF1 are titrated from about 0.2 to about 200 ng/ml and cell proliferation is monitored by counting cells after 5 days. Cultures that expand successfully are serially passaged 5 times.

[1] = Expt. A, seeding 2 × 10^6, p0, day 1
[2] = Expt. A, seeding 2 × 10^6, p0, day 4
[3] = Expt. B, seeding 2 × 10^6, p0, day 1
[4] = Expt. B, seeding 2 × 10^6, p0, day 5
[5] = Expt. B, seeding 2 × 10^6, p0, day 5, Y27632 removed after 24 hours
[6] = Expt. C, seeding 1 × 10^6, p0, day 1
[7] = Expt. C, seeding 1 × 10^6, p0, day 5
[8] = Expt. C, seeding 2 × 10^6, p0, day 1
[9] = Expt. C, seeding 2 × 10^6, p0, day 5
[10] = Expt. C, seeding 2.5 × 10^5, p0, day 1
[11] = Expt. C, seeding 2.5 × 10^5, p0, day 5
[12] = Expt. C, seeding 5 × 10^5, p0, day 1
[13] = Expt. C, seeding 5 × 10^5, p0, day 5
[14] = Expt. C, seeding 10^5, p0, day 1
[15] = Expt. C, seeding 10^5, p0, day 5

## COc1cc(/C=C(\C#N)C(N)=O)cc(CSc2nc3ccccc3s2)c1O [AG825]
BG02 hESCs
  effect on proliferation of hESCs growing in conditioned medium (CM): significantly inhibited proliferation
ErbB2
  autophosphorylation of ErbB2 at tyrosine-1248: inhibited autophosphorylation

## CC(C)(C)c1cc(/C=C(\C#N)C(N)=S)cc(C(C)(C)C)c1O [AG879]
BG01v cells; 5 μM
  effect on cell growth: substantially inhibited cell growth
BG01v cells; 20 μM
  cell death: caused cell death
R1 mouse ES cells; 20 μM, 8 days
  effect on proliferation: may have slowed proliferation
R1 mouse ES cells; 50 μM, 8 days
  effect on cell growth: substantially inhibited cell growth
R1 mouse ES cells; higher for mESCs than for BG01v cells in defined conditions
  concentration required to inhibit proliferation, mESCs relative to BG01v cells: ~10 ×

## COc1cc2ncnc(Nc3cccc(Cl)c3)c2cc1OC [AG1478]
BG01v cells; 50 nM-20 μM, DC medium with LongR3-IGF1, FGF2, Activin A
  effect on cell proliferation: neither DMSO nor AG1478 (50 nM-20 μM) had an apparent affect on cell proliferation
R1 mouse ES cells; 1-50 μM, 8 days, 10% FBS, 10% KSR, LIF
  effect on cell proliferation: no apparent affect on cell proliferation

## C[C@@H](N)[C@H]1CC[C@H](C(=O)Nc2ccncc2)CC1 [Y27632]
ES cells
  yield of cells generated by day 5: increased the yield of cells
BG02 cells; 10 μM, compared to medium without inhibitor
  size of aggregates in initial aggregation phase of suspension culture: much larger aggregates were formed
BG02 cells; 10 μM, first 24 hours
  initial survival and aggregation of hESCs after initial passage: enhanced initial survival and aggregation of hESCs
BG02 cells; Expt. A, 10 μM, versus without inhibitor
  cells observed when the aggregates were split again: almost twice as many cells
BG02 cells; Expt. A, p1, day 4
  Cell counts: total: 4.6 × 10^6 cells
  Cell counts: viable: 4.2 × 10^6 cells
  viable cells, %: 91%
BG02 cells; [1]
  Cell counts: total: 1.6 × 10^6 cells
  Cell counts: viable: 1.2 × 10^6 cells
  viable cells, %: 74%
BG02 cells; [2]
  Cell counts: total: 7.8 × 10^6 cells
  Cell counts: viable: 7.1 × 10^6 cells
  viable cells, %: 91%
BG02 cells; [3]
  Cell counts: total: 1.9 × 10^6 cells
  Cell counts: viable: 1.4 × 10^6 cells
  viable cells, %: 73%
BG02 cells; [4]
  Cell counts: total: 1.5 × 10^7 cells
  Cell counts: viable: 1.4×10^7 cells
  viable cells, %: 92%
BG02 cells; [5]
  Cell counts: total: 1.9 × 10^7 cells
  Cell counts: viable: 1.8×10^7 cells
  viable cells, %: 96%
BG02 cells; [6]
  Cell counts: total: 8.7 × 10^5 cells
  Cell counts: viable: 6.6 × 10^5 cells
  viable cells, %: 76%
BG02 cells; [7]
  Cell counts: total: 8.6 × 10^6 cells
  Cell counts: viable: 7.8 × 10^6 cells
  viable cells, %: 91%
BG02 cells; [8]
  Cell counts: total: 1.9 × 10^6 cells
  Cell counts: viable: 1.6 × 10^6 cells
  viable cells, %: 84%
BG02 cells; [9]
  Cell counts: total: 1.4 × 10^7 cells
  Cell counts: viable: 1.2 × 10^7 cells
  viable cells, %: 90%
BG02 cells; [10]
  Cell counts: total: 2.6 × 10^5 cells
  Cell counts: viable: 2.3 × 10^5 cells
  viable cells, %: 91%
BG02 cells; [11]
  Cell counts: total: 2.7 × 10^6 cells
  Cell counts: viable: 2.5 × 10^6 cells
  viable cells, %: 91%
BG02 cells; [12]
  Cell counts: total: 4.6 × 10^5 cells
  Cell counts: viable: 3.5 × 10^5 cells
  viable cells, %: 75%
BG02 cells; [13]
  Cell counts: total: 5.7 × 10^6 cells
  Cell counts: viable: 5.3 × 10^6 cells
  viable cells, %: 93%
BG02 cells; [14]
  Cell counts: total: 6.8 × 10^4 cells
  Cell counts: viable: 5.4 × 10^4 cells
  viable cells, %: 79%
BG02 cells; [15]
  Cell counts: total: 1.4 × 10^6 cells
  Cell counts: viable: 1.3 × 10^6 cells
  viable cells, %: 92%
BG02 cells; seeded with 1×10^5 cells, 10 μM Y27632, day 5
  expansion of viable cells: ~13 fold

## IGF1: insulin-like growth factor
hESCs
  expansion of hESC cultures at physiological levels: support the expansion of hESC cultures

## insulin: protein that binds to the insulin receptor
hESCs
  expansion of hESC cultures at physiological levels: do not

From US8415158B2, “Compositions and methods useful for culturing differentiable cells” (ViaCyte, Inc., priority 2006, dated 2013)
